According to US20100035853A1, “METHOD FOR PREVENTING OR TREATING CISPLATIN-INDUCED NEPHROTOXICITY” (HYOGO COLLEGE OF MEDICINE, priority 2008, published 2010):

Columns and labels:
aldosterone receptor [1] = molecular target: T1, aldosterone receptor (Mus musculus, UniProt Q8VII8); test: Effect of Eplerenone on Cisplatin-induced increase in plasma aldosterone in wild-type mice; type: in vivo; set-up: Wild-type male BALB/c mice (WT mice) aged 9-10 weeks-old were purchased; from tissue; host or cells: whole animal: wild-type male BALB/c mice dosed orally, with read-outs in plasma; conditions: Eplerenone 20 mg/kg orally, observation for 3 days, significant at day 1 and later
T1 sequence (Q8VII8 1-978): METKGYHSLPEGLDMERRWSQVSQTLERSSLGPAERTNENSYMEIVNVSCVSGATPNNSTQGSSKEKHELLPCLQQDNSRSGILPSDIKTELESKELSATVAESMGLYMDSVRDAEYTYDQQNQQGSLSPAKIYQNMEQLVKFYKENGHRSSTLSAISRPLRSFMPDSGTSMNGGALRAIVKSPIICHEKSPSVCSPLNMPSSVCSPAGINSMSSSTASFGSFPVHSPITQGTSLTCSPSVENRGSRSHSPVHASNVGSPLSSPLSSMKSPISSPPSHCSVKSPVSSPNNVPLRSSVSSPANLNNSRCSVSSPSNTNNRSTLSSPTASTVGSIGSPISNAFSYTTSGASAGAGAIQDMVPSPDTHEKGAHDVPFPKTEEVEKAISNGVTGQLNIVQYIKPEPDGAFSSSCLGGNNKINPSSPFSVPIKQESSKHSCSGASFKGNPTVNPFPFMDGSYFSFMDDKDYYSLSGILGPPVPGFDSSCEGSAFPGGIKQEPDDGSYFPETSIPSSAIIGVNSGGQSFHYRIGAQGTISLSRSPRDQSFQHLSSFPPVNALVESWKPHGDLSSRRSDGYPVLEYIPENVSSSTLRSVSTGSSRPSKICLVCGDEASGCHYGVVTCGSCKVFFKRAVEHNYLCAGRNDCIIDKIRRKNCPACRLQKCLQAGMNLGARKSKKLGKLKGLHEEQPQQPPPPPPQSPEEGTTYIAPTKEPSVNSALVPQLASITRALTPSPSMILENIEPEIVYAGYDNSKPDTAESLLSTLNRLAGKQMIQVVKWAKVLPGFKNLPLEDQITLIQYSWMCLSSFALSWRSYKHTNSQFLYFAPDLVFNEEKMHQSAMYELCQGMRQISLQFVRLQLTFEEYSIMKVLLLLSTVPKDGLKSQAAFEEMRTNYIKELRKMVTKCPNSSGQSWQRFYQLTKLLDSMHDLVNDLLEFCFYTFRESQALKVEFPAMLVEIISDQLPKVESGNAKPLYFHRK
Experimental: (§1) Open and closed columns show vehicle- and Eplerenone-treated mice, respectively. […] NS; not significant.
(§2) Blood urea nitrogen (BUN) and creatinine were enzymatically measured by HITACHI 7180 auto-analyzer. Aldosterone level was measured by radioimmuno assay. All of these assays were performed by SRL, Inc (Tokyo, Japan).

aldosterone receptor [2] = molecular target: T1, aldosterone receptor
Experimental: as §1, §2

[3] = Survival of wild-type and IL-18KO mice after Cisplatin; type: in vivo, mouse; conditions: Cisplatin 20 mg/kg i.p.; for dead mice: day 2; for survival rate: day 3
Experimental: Open and closed symbols show wild-type and IL-18KO mice, respectively.
(§3) As a control, mice were treated with a similar volume of saline.

[4] = Accumulation of Cisplatin in the kidney (platinum ion content of kidney homogenate); type: in vivo, mouse; conditions: wild-type vs IL-18KO mice, Cisplatin 20 mg/kg i.p.
Experimental: Accumulations of Cisplatin in the kidney were measured as platinum ion content in the kidney homogenate. Open and closed columns show wild-type and IL-18KO mice, respectively.

[5] = Serum IL-18 and other cytokines after Cisplatin treatment (ELISA); type: in vivo, mouse; conditions: wild-type BALB/c mice, Cisplatin 20 mg/kg i.p.
Experimental: Levels of serum IL-18 were measured using the specific ELISA kit.
IL-18 concentrations in serum were measured by ELISA purchased from Medical and Biological Laboratories (Tokyo, Japan) in accordance with the manufactures' instructions. Other cytokines such as TNF-α, IFN-γ, IL-1β, IL-10 and MIP-1α were measured respective ELISA kits purchased from R&D Systems Inc (USA).

[6] = Exogenous recombinant mouse IL-18 in Cisplatin-treated IL-18KO mice: plasma BUN and creatinine; type: in vivo; conditions: IL-18KO mice supplemented with rmIL-18 (2 μg/body), Cisplatin 20 mg/kg i.p.
Experimental: Plasma levels of BUN and creatinine were measured as shown in Materials and Methods. Open, closed and grey-colored columns show wild-type, IL-18KO and IL-18-supplemented IL-18KO mice, respectively. […] NS; not significant.
as §3, §2

[7] = Induction of plasma aldosterone by recombinant IL-18 in wild-type mice; type: in vivo
Experimental: Wild-type mice were treated with various doses of IL-18 (0.2, 0.6 and 2 mg/mouse), then blood samples were collected at 5 hours after IL-18 treatment. […] NS; not significant.
as §2

[8] = wild-type mice, Eplerenone 20 mg/kg orally 30 min pre, day 1, day 2, Cisplatin 20 mg/kg i.p.

Q: Which results are given for `COC(=O)[C@@H]1CC2=CC(=O)CC[C@]2(C)[C@@]23O[C@@H]2C[C@@]2(C)[C@@H](CC[C@@]24CCC(=O)O4)[C@H]13` [Eplerenone]?
A: increase in plasma aldosterone level induced by Cisplatin (aldosterone receptor [1]): completely inhibited; inhibition of increased creatinine level vs vehicle (aldosterone receptor [2]; day 1 and later after Cisplatin treatment): significant inhibition; inhibition of increased BUN level vs vehicle (aldosterone receptor [2]; day 2 and 3 after Cisplatin treatment): Significant inhibition; renal toxicity of Cisplatin (summary statement) (aldosterone receptor [2]; wild-type mice): strongly suppressed; lethality of Cisplatin (aldosterone receptor [2]; wild-type mice treated with Eplerenone (data not shown)): almost completely suppressed; elevation of plasma BUN (aldosterone receptor [2]; [8]): almost completely suppressed; elevation of plasma creatinine (aldosterone receptor [2]; [8]): almost completely suppressed

Q: For `N.N.[Cl][Pt][Cl]` [Cisplatin], which dead mice ([3]; IL-18KO mice) is on record?
A: no mouse was dead

Q: What about the survival rate ([3]; IL-18KO mice) of the same molecule?
A: 92.9%

Q: What about the dead mice ([3]; wild-type mice) of the same molecule?
A: six of fourteen

Q: What about the survival rate ([3]; wild-type mice) of the same molecule?
A: 28.6%

Q: And the “quantity of platinum ion in the kidney” value ([4]; day 1)?
A: almost equivalent

Q: What about the “rate of excretion of platinum ion from the kidney” value ([4]; day 2 and 3) of the same molecule?
A: much rapid in IL-18KO mice than in wild-type mice

Q: What about the “levels of IL-18 in the circulation” value ([5]; around day 3) of the same molecule?
A: over 1000 pg/ml

Q: And the “other cytokines (TNF-α, IFN-γ, IL-1β, IL-10, MIP-1α) in serum” value ([5]; when IL-18 was at maximal levels (data not shown))?
A: undetectable

B1: rmIL-18: Recombinant mouse IL-18 donated by GlaxoSmithKline Pharmaceuticals (protein, UniProt P70380 36-192, looked up)
Interleukin-18: NFGRLHCTTAVIRNINDQVLFVDKRQPVFEDMTDIDQSASEPQTRLIIYMYKDSEVRGLAVTLSVKDSKMSTLSCKNKIISFEEMDPPENIDDIQSDLIFFQKRVPGHNKMEFESSLYEGHFLACQKEDDAFKLILKKKDENGDKSVMFTLTNLHQS
Q: For B1, which “plasma levels of creatinine induced by Cisplatin” value ([6]; day 1 to 3) is on record?
A: significantly increased

Q: And the “plasma levels of BUN” value ([6]; day 3)?
A: increased to almost equivalent levels with wild-type mice

Q: And the “renal toxicity of exogenously given IL-18 alone” value ([7]; wild-type mice (data not shown))?
A: did not cause any renal toxicity

Q: What about the “dose of IL-18 giving significant induction of plasma aldosterone” value ([7]; wild-type mice, 5 hours after IL-18 treatment) of the same molecule?
A: over 0.6 μg

Q: And the “plasma levels of aldosterone” value ([7]; wild-type mice, various doses of IL-18, 5 hours after treatment)?
A: augmented the plasma levels of aldosterone in a dose-dependent manner
